In patent US20160297833A1, “THIENOPYRIMIDINES AS MKNK1 AND MKNK2 INHIBITORS” (BAYER PHARMA AKTIENGESELLSCHAFT, priority 2013, published 2016):

Molecular target: T1, human full-length MKNK1 (Homo sapiens, UniProt Q9BUB5, T385D)
T1 construct: GST (N); purchased Carna Biosciences 02-145; host or cells: insect cells (baculovirus expression system)
Assay: MKNK1 kinase high ATP assay (TR-FRET)
Type: biochemical
Settings: Table 1; MKNK1 kinase high ATP assay, 2 mM ATP; read-out: MKNK1 IC50
In short: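 Full-length human MKNK1 (T385D) preincubated 15 min at 22 °C with compound in HEPES pH 7.5/MgCl2/DTT buffer; reaction with 2 mM ATP (final) and 0.06 μM biotinylated peptide (final), 30 min at 22 °C.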

T1 sequence (Q9BUB5 1-424 isoform Q9BUB5-2 T344D): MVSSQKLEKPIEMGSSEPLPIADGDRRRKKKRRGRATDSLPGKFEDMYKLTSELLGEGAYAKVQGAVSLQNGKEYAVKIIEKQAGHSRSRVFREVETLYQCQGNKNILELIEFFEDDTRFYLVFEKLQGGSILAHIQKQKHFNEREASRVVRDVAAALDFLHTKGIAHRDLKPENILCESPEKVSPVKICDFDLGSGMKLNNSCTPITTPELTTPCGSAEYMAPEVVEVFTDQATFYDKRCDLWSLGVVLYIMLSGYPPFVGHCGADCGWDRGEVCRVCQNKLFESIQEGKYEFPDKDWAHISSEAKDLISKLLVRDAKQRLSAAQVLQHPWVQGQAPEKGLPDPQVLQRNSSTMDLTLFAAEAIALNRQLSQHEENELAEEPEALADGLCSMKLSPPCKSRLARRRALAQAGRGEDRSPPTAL

| Structure (SMILES) | IC50 [nM] |
| --- | --- |
| COc1cc2[nH]ncc2cc1Nc1ncnc2sc3c(c12)CC[C@H](C(=O)N(C)CCC(F)(F)F)C3 [Example 123, (7S)-4-[(6-Methoxy-1H-indazol-5-yl)amino]-N-methyl-N-(3,3,3-trifluoropropyl)-5,6,7,8-tetrahydro[1]benzothieno[2,3-d]pyrimidine-7-carboxamide] | 0.4 |
| CC(C)Oc1cc2[nH]ncc2cc1Nc1ncnc2sc3c(c12)CC[C@H](C(=O)N(C)CCC(F)(F)F)C3 [Example 125, (7S)—N-Methyl-4-{[6-(propan-2-yloxy)-1H-indazol-5-yl]amino}-N-(3,3,3-trifluoropropyl)-5,6,7,8-tetrahydro[1]benzothieno[2,3-d]pyrimidine-7-carboxamide] | 0.4 |
| C[C@H]1COCCN1C(=O)[C@H]1CCc2c(sc3ncnc(Nc4cc5cn[nH]c5cc4OCCN)c23)C1 [Example 131, [(7S)-4-{[6-(2-Aminoethoxy)-1H-indazol-5-yl]amino}-5,6,7,8-tetrahydro[1]benzothieno[2,3-d]pyrimidin-7-yl][(3S)-3-methylmorpholin-4-yl]methanone] | 0.4 |
| CN(C)C1CCN(c2cc3[nH]ncc3cc2Nc2ncnc3sc4c(c23)CC[C@H](C(=O)N2CCC2)C4)CC1 [Example 132, Azetidin-1-yl[(7S)-4-({6-[4-(dimethylamino)piperidin-1-yl]-1H-indazol-5-yl}amino)-5,6,7,8-tetrahydro[1]benzothieno[2,3-d]pyrimidin-7-yl]methanone] | 27.2 |
| CN(C)C1CCN(c2cc3[nH]ncc3cc2Nc2ncnc3sc4c(c23)CC[C@H](C(=O)N2CCOCC2)C4)CC1 [Example 133, [(7S)-4-({6-[4-(Dimethylamino)piperidin-1-yl]-1H-indazol-5-yl}amino)-5,6,7,8-tetrahydro[1]benzothieno[2,3-d]pyrimidin-7-yl](morpholin-4-yl)methanone] | 37.9 |
| CN(C)CCOc1cc2[nH]ncc2cc1Nc1ncnc2sc3c(c12)CC[C@H](C(=O)N1CCC(N(C)C)CC1)C3 [Example 134, [(7S)-4-({6-[2-(Dimethylamino)ethoxy]-1H-indazol-5-yl}amino)-5,6,7,8-tetrahydro[1]benzothieno[2,3-d]pyrimidin-7-yl][4-(dimethylamino)piperidin-1-yl]methanone] | 8.3 |
| C[C@H]1COCCN1C(=O)[C@H]1CCc2c(sc3ncnc(Nc4cc5cn[nH]c5cc4N4CCC(N(C)C)CC4)c23)C1 [Example 135, [(7S)-4-({6-[4-(Dimethylamino)piperidin-1-yl]-1H-indazol-5-yl}amino)-5,6,7,8-tetrahydro[1]benzothieno[2,3-d]pyrimidin-7-yl][(3S)-3-methylmorpholin-4-yl]methanone] | 14.1 |
| C[C@@H]1COCCN1C(=O)[C@H]1CCc2c(sc3ncnc(Nc4cc5cn[nH]c5cc4N4CCC(N(C)C)CC4)c23)C1 [Example 136, [(7S)-4-({6-[4-(Dimethylamino)piperidin-1-yl]-1H-indazol-5-yl}amino)-5,6,7,8-tetrahydro[1]benzothieno[2,3-d]pyrimidin-7-yl][(3R)-3-methylmorpholin-4-yl]methanone] | 24 |
| C[C@@H]1CN(C(=O)[C@H]2CCc3c(sc4ncnc(Nc5cc6cn[nH]c6cc5N5CCC(N(C)C)CC5)c34)C2)C[C@H](C)O1 [Example 137, [(7S)-4-({6-[4-(Dimethylamino)piperidin-1-yl]-1H-indazol-5-yl}amino)-5,6,7,8-tetrahydro[1]benzothieno[2,3-d]pyrimidin-7-yl][(2R,6S)-2,6-dimethylmorpholin-4-yl]methanone] | 33 |
| CN(C)C1CCN(C(=O)[C@H]2CCc3c(sc4ncnc(Nc5cc6cn[nH]c6cc5OCCN5CCCCC5)c34)C2)CC1 [Example 139, [4-(Dimethylamino)piperidin-1-yl][(7S)-4-({6-[2-(piperidin-1-yl)ethoxy]-1H-indazol-5-yl}amino)-5,6,7,8-tetrahydro[1]benzothieno[2,3-d]pyrimidin-7-yl]methanone] | 95 |
| C[C@@H](CN)Oc1cc2[nH]ncc2cc1Nc1ncnc2sc3c(c12)CC[C@H](C(=O)N(C)C)C3 [Example 141, (7S)-4-[(6-{[(25)-1-Aminopropan-2-yl]oxy}-1H-indazol-5-yl)amino]-N,N-dimethyl-5,6,7,8-tetrahydro[1]benzothieno[2,3-d]pyrimidine-7-carboxamide] | 3.4 |
| C[C@H](N)COc1cc2[nH]ncc2cc1Nc1ncnc2sc3c(c12)CC[C@H](C(=O)N(C)C)C3 [Example 142, (7S)-4-[(6-{[(2S)-2-Aminopropyl]oxy}-1H-indazol-5-yl)amino]-N,N-dimethyl-5,6,7,8-tetrahydro[1]benzothieno[2,3-d]pyrimidine-7-carboxamide] | 3.5 |
| C[C@H](CN)Oc1cc2[nH]ncc2cc1Nc1ncnc2sc3c(c12)CC[C@H](C(=O)N1CCOC[C@H]1C)C3 [Example 144, {(7S)-4-[(6-{[(2R)-1-Aminopropan-2-yl]oxy}-1H-indazol-5-yl)amino]-5,6,7,8-tetrahydro[1]benzothieno[2,3-d]pyrimidin-7-yl}[(3R)-3-methylmorpholin-4-yl]methanone] | 1 |
| C[C@@H]1COCCN1C(=O)[C@H]1CCc2c(sc3ncnc(Nc4cc5cn[nH]c5cc4O[C@@H](C)CN)c23)C1 [Example 148, {(7S)-4-[(6-{[(2S)-1-Aminopropan-2-yl]oxy}-1H-indazol-5-yl)amino]-5,6,7,8-tetrahydro[1]benzothieno[2,3-d]pyrimidin-7-yl}[(3R)-3-methylmorpholin-4-yl]methanone] | 4.2 |

The next lines start with the values.

| IC50 [nM] | Structure (SMILES) |
| --- | --- |
| 0.3 | COc1cc2[nH]ncc2cc1Nc1ncnc2sc3c(c12)CC[C@H](C(=O)N(C)CC(C)(C)O)C3 [Example 124, (7S)—N-(2-Hydroxy-2-methylpropyl)-4-[(6-methoxy-1H-indazol-5-yl)amino]-N-methyl-5,6,7,8-tetrahydro[1]benzothieno[2,3-d]pyrimidine-7-carboxamide] |
| 0.3 | CC(C)Oc1cc2[nH]ncc2cc1Nc1ncnc2sc3c(c12)CC[C@H](C(=O)N(C)CC(C)(C)O)C3 [Example 126, (7S)—N-(2-Hydroxy-2-methylpropyl)-N-methyl-4-{[6-(propan-2-yloxy)-1H-indazol-5-yl]amino}-5,6,7,8-tetrahydro[1]benzothieno[2,3-d]pyrimidine-7-carboxamide] |
| 6.5 | CC(C)N(C(=O)[C@H]1CCc2c(sc3ncnc(Nc4ccc5[nH]ncc5c4)c23)C1)C(C)C [Example 127, (7S)-4-(1H-Indazol-5-ylamino)-N,N-di(propan-2-yl)-5,6,7,8-tetrahydro[1]benzothieno[2,3-d]pyrimidine-7-carboxamide] |
| 1 | C=CCN(C)c1cc2[nH]ncc2cc1Nc1ncnc2sc3c(c12)CC[C@H](C(=O)N(C)C)C3 [Example 128, (7S)—N,N-Dimethyl-4-({6-[methyl(prop-2-en-1-yl)amino]-1H-indazol-5-yl}amino)-5,6,7,8-tetrahydro[1]benzothieno[2,3-d]pyrimidine-7-carboxamide] |
| 8.9 | CC(C)Oc1cc2[nH]ncc2c(F)c1Nc1ncnc2sc3c(c12)CC[C@H](C(=O)N(C)C)C3 [Example 129, (7S)-4-{[4-Fluoro-6-(propan-2-yloxy)-1H-indazol-5-yl]amino}-N,N-dimethyl-5,6,7,8-tetrahydro[1]benzothieno[2,3-d]pyrimidine-7-carboxamide] |
| 0.9 | C[C@@H]1COCCN1C(=O)[C@H]1CCc2c(sc3ncnc(Nc4cc5cn[nH]c5cc4OCCN)c23)C1 [Example 130, [(7S)-4-{[6-(2-Aminoethoxy)-1H-indazol-5-yl]amino}-5,6,7,8-tetrahydro[1]benzothieno[2,3-d]pyrimidin-7-yl][(3R)-3-methylmorpholin-4-yl]methanone] |
| 192 | CN(C)C1CCN(C(=O)[C@H]2CCc3c(sc4ncnc(Nc5cc6cn[nH]c6cc5OCCN5CCCC5)c34)C2)CC1 [Example 138, [4-(Dimethylamino)piperidin-1-yl][(7S)-4-({6-[2-(pyrrolidin-1-yl)ethoxy]-1H-indazol-5-yl}amino)-5,6,7,8-tetrahydro[1]benzothieno[2,3-d]pyrimidin-7-yl]methanone] |
| 0.4 | C[C@H](CN)Oc1cc2[nH]ncc2cc1Nc1ncnc2sc3c(c12)CC[C@H](C(=O)N1CCOC[C@@H]1C)C3 [Example 140, {(7S)-4-[(6-{[(2R)-1-Aminopropan-2-yl]oxy}-1H-indazol-5-yl)amino]-5,6,7,8-tetrahydro[1]benzothieno[2,3-d]pyrimidin-7-yl}[(3S)-3-methylmorpholin-4-yl]methanone] |
| 3 | C[C@H](N)COc1cc2[nH]ncc2cc1Nc1ncnc2sc3c(c12)CC[C@H](C(=O)N1CCOC[C@@H]1C)C3 [Example 143, {(7S)-4-[(6-{[(2S)-2-Aminopropyl]oxy}-1H-indazol-5-yl)amino]-5,6,7,8-tetrahydro[1]benzothieno[2,3-d]pyrimidin-7-yl}[(3S)-3-methylmorpholin-4-yl]methanone] |
| 5.1 | C[C@@H](CN)Oc1cc2[nH]ncc2cc1Nc1ncnc2sc3c(c12)CC[C@H](C(=O)N1CCOC[C@@H]1C)C3 [Example 145, {(7S)-4-[(6-{[(2S)-1-Aminopropan-2-yl]oxy}-1H-indazol-5-yl)amino]-5,6,7,8-tetrahydro[1]benzothieno[2,3-d]pyrimidin-7-yl}[(3S)-3-methylmorpholin-4-yl]methanone] |
| 13.1 | C[C@H](N)COc1cc2[nH]ncc2cc1Nc1ncnc2sc3c(c12)CC[C@H](C(=O)N1CCOC[C@H]1C)C3 [Example 146, {(7S)-4-[(6-{[(2S)-2-Aminopropyl]oxy}-1H-indazol-5-yl)amino]-5,6,7,8-tetrahydro[1]benzothieno[2,3-d]pyrimidin-7-yl}[(3R)-3-methylmorpholin-4-yl]methanone] |
| 5.6 | C[C@@H](N)COc1cc2[nH]ncc2cc1Nc1ncnc2sc3c(c12)CC[C@H](C(=O)N(C)C)C3 [Example 147, (7S)-4-[(6-{[(2R)-2-Aminopropyl]oxy}-1H-indazol-5-yl)amino]-N,N-dimethyl-5,6,7,8-tetrahydro[1]benzothieno[2,3-d]pyrimidine-7-carboxamide] |
